Measured values taken from patent publication US3960877A, “N-monosubstituted-2,3-pyridinedicarboxamides, and related compounds” (priority 1974, dated 1976).

What was measured:
Format in all cases: in vivo
Lambsquarters = assay: Preemergence herbicidal activity, % control of plant growth; conditions: 16 pounds per acre
How it was run: (§1)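 Freshly sown soil received a spray of the test compound, about 2% by weight in acetone and/or alcohol, delivering 16 lb per acre of soil surface before seedlings emerged. Herbicidal effect was judged by eye roughly three weeks afterward relative to untreated areas.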

Foxtail = assay: as above; conditions: 16 pounds per acre
How it was run: as §1

Johnsongrass = assay: as above; conditions: 16 pounds per acre
How it was run: as §1

Velvetleaf = assay: as above; conditions: Abutilon theophrasti, pre-emergence, 504 h, 16 lb/acre, about 3 weeks
How it was run: as §1

Crabgrass = assay: as above; conditions: 16 pounds per acre
How it was run: as §1

Cucumber = assay: as above; conditions: 16 pounds per acre
How it was run: as §1

Wild Oats = assay: as above; conditions: 16 pounds per acre
How it was run: as §1

Cheatgrass = assay: as above; conditions: 16 pounds per acre
How it was run: as §1

Alfalfa = assay: as above; conditions: 16 pounds per acre
How it was run: as §1

Chickweed = assay: as above; conditions: pre-emergence, 504 h, 16 lb/acre, about 3 weeks
How it was run: as §1

Yellow Rocket = assay: as above; conditions: pre-emergence, 504 h, 16 lb/acre, about 3 weeks
How it was run: as §1

Barnyard Grass = assay: as above; conditions: barnyardgrass; 16 pounds per acre
How it was run: as §1

Nutgrass = assay: as above; conditions: pre-emergence, 504 h, 16 lb/acre, about 3 weeks
How it was run: as §1

Corn = assay: as above; conditions: 16 pounds per acre
How it was run: as §1

Snapbeans = assay: as above; conditions: pre-emergence, 504 h, 16 lb/acre, about 3 weeks
How it was run: as §1

Curled Dock = assay: as above; conditions: 16 pounds per acre
How it was run: as §1

Pigweed = assay: as above; conditions: 16 pounds per acre
How it was run: as §1

volunteer soybeans = assay: Herbicidal activity at 16 pounds per acre, % control
Description: (§2) In using the compound, seeds of the types of plants set forth in Table II were sown in fresh soil. In the preemergence test the soil was sprayed with a solution of the test compound immediately after the seeds were planted, and before any noticeable growth developed. The solution was about a 2 percent by weight solution of the compound in acetone and/or alcohol. The compound was applied at the rate of 16 pounds per acre of soil surface.
(§3) Approximately 3 weeks after spray application, the herbicidal activity of the compound was determined by visual observation of the treated area in comparison with untreated control areas. These observations are reported below in Table II wherein the average activity rating is reported as the percent control of plant growth.

[1] = tested on: undesirable plants of both the monocotyledonous and the dicotyledonous species; assay: Herbicidal activity, general; conditions: in vivo
Description: All of the 3-substituted compounds of the pyrido [3,2-d]pyrimidine-2,4(1H,3H)-dione and lumazine families made from intermediate amides produced by the method of this invention have an unexpectedly high order of herbicidal activity.
as §2, §3
In the postemergence test the soil and developing plants were sprayed approximately 2 weeks after the seeds were sown. The compound was applied at the rate of 8 pounds per acre from about a 2 percent by weight solution of the test compound in acetone and/or alcohol. The postemergence herbicidal activity was measured in the same way as the preemergence activity; i.e. visual observation approximately 11 days after spraying, and expressed as the percent control of plant growth.

## CCn1c(=O)[nH]c2ncccc2c1=O [3-ethyl-pyrido[2,3-d]pyrimidine-2,4 (1H,3H)-dione]
Lambsquarters
  herbicidal activity/control: no significant control
Foxtail
  herbicidal activity/control: no significant control
Johnsongrass
  herbicidal activity/control: no significant control
Velvetleaf
  pest or weed control at 17933.6 g/ha: 80%
Crabgrass
  herbicidal activity/control: no significant control
Cucumber
  herbicidal activity/control: no significant control
Wild Oats
  herbicidal activity/control: no significant control
Cheatgrass
  herbicidal activity/control: no significant control
Alfalfa
  herbicidal activity/control: no significant control
Chickweed
  pest or weed control at 17933.6 g/ha: 80%
Yellow Rocket
  pest or weed control at 17933.6 g/ha: 80%
Barnyard Grass
  herbicidal activity/control: no significant control
Nutgrass
  pest or weed control at 17933.6 g/ha: 90%
Corn
  herbicidal activity/control: no significant control
Snapbeans
  pest or weed control at 17933.6 g/ha: 100%
Curled Dock
  herbicidal activity/control: no significant control
Pigweed
  herbicidal activity/control: no significant control
Volunteer soybeans
  percent control: 100%
[1]
  order of herbicidal activity: comparatively low order
